Measured values: the supplement of paper PMC10307832

Tests used:
Assay in all cases: relative viability (nuclei count vs DMSO), 5 days (fraction); higher = more cells survive
Wnt-C59 + Pictilisib = compound: CC1=NC=CC(=C1)C2=CC=C(C=C2)CC(=O)NC3=CC=C(C=C3)C4=CN=CC=C4 [Wnt-C59] + CS(=O)(=O)N1CCN(Cc2cc3nc(-c4cccc5[nH]ncc45)nc(N4CCOCC4)c3s2)CC1 [Pictilisib] (partner 1 µM)
Summary of the method: (§1)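 Relative viability is defined as nuclei in treated wells over nuclei in vehicle wells. Duplicate plates were run and medians reported. Lung cancer cell lines in 1536-well plates were dosed by pin tool one day after seeding, with one drug or with a fixed anchor-drug dose plus five library-drug doses (not always all listed) in √10 steps, and nuclei were counted after 5 days.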

Lapatinib + Foretinib = compound: CS(=O)(=O)CCNCc1ccc(-c2ccc3ncnc(Nc4ccc(OCc5cccc(F)c5)c(Cl)c4)c3c2)o1 [Lapatinib] + COc1cc2c(Oc3ccc(NC(=O)C4(C(=O)Nc5ccc(F)cc5)CC4)cc3F)ccnc2cc1OCCCN1CCOCC1 [Foretinib] (partner 0.25 µM)
Summary of the method: as §1

Lapatinib + Crizotinib = compound: CS(=O)(=O)CCNCc1ccc(-c2ccc3ncnc(Nc4ccc(OCc5cccc(F)c5)c(Cl)c4)c3c2)o1 [Lapatinib] + C[C@@H](Oc1cc(-c2cnn(C3CCNCC3)c2)cnc1N)c1c(Cl)ccc(F)c1Cl [Crizotinib] (partner 1 µM)
Summary of the method: as §1

Lapatinib + Tozasertib = compound: CS(=O)(=O)CCNCc1ccc(-c2ccc3ncnc(Nc4ccc(OCc5cccc(F)c5)c(Cl)c4)c3c2)o1 [Lapatinib] + Cc1cc(Nc2cc(N3CCN(C)CC3)nc(Sc3ccc(NC(=O)C4CC4)cc3)n2)n[nH]1 [Tozasertib] (partner 0.1 µM)
Summary of the method: as §1

Cell Line: UMC-11
- relative viability (Wnt-C59 + Pictilisib; first compound 0.001 µM): 0.81
- relative viability (Wnt-C59 + Pictilisib; first compound 0.01 µM): 0.843
- relative viability (Wnt-C59 + Pictilisib; first compound 0.03162 µM): 0.844
- relative viability (Wnt-C59 + Pictilisib; first compound 0.1 µM): 0.756
- relative viability (Lapatinib + Foretinib; first compound 0.02 µM): 0.951
- relative viability (Lapatinib + Foretinib; first compound 0.06325 µM): 1.01
- relative viability (Lapatinib + Foretinib; first compound 0.2 µM): 0.961
- relative viability (Lapatinib + Foretinib; first compound 0.6325 µM): 0.978
- relative viability (Lapatinib + Foretinib; first compound 2 µM): 0.933
- relative viability (Lapatinib + Crizotinib; first compound 0.02 µM): 0.541
- relative viability (Lapatinib + Crizotinib; first compound 0.06325 µM): 0.508
- relative viability (Lapatinib + Crizotinib; first compound 0.2 µM): 0.672
- relative viability (Lapatinib + Crizotinib; first compound 0.6325 µM): 0.578
- relative viability (Lapatinib + Crizotinib; first compound 2 µM): 0.659
- relative viability (Lapatinib + Tozasertib; first compound 0.06325 µM): 0.211
- relative viability (Lapatinib + Tozasertib; first compound 0.2 µM): 0.209
- relative viability (Lapatinib + Tozasertib; first compound 0.6325 µM): 0.184
- relative viability (Lapatinib + Tozasertib; first compound 2 µM): 0.211
